pIC50: −log10 of the molar value. Where “and” joins values, the source holds several entries; their conditions need not be identical. Equal entries are not always repeated. Where two headings read alike, the source gives them in different places.
Assays:
EphrinB2-EphB2 [1] = target: T1, EphrinB2-EphB2 (Homo sapiens, UniProt P29323); assay: Octet 80 sec association/500 sec dissociation, immobilized human EphrinB2-Fc binding to soluble human EphB2-His; conditions: for EphB2 Inhibition Percent, Inhibition of Association ONLY: at 3.2 μM and 80 seconds; for EphB2 Inhibition Percent, Inhibition of Association ONLY / EphB2 Inhibition Percent, Inhibition of Association-Dissociation: immobilized human EphrinB2, 25 nM soluble human EphB2; for EphB2 Inhibition Percent, Inhibition of Association-Dissociation: at 3.2 μM and 580 seconds; for inhibition at 3.2 µM: EphB2, 25 nM EphB2, 3.2 μM compound, A20-I as max control, 0* = less than 0, no inhibition
T1 construct: soluble human EphB1-His, EphB2-His, and EphB4-His ectodomains; commercially available human EphrinB1-Fc (EB1), EphrinB2-Fc (EB2), and EphrinB3-Fc (EB3) ectodomain proteins; purchased
T1 sequence (P29323 19-543 limits assumed): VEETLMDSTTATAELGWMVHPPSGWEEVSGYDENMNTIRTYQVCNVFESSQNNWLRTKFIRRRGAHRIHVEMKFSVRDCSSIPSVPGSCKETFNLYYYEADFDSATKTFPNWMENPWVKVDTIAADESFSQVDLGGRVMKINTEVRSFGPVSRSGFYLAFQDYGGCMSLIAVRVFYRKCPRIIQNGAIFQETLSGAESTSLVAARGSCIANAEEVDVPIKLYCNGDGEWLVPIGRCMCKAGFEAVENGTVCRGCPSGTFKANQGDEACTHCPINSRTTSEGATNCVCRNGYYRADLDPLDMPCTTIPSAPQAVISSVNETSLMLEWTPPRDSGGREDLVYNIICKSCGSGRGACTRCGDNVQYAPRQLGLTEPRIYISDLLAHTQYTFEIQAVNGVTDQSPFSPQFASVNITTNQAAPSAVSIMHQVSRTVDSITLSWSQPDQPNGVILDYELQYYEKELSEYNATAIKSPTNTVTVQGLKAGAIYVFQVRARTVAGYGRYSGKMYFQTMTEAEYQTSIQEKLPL
Protocol: (§1) In another experiment, whether certain A20 analogs might have specificity for different Eph receptors was tested. An Octet RED384 system was used to obtain biophysical ON-OFF binding data (association-dissociation) for the three different human EphrinB2-EphB1, EphrinB2-EphB2, and EphrinB2-EphB4 protein-protein interactions and to assess the effect of A20 chemicals on the binding kinetics.
(§2) FIGS. 72A-72C show three example Octet sensorgram response traces for the immobilized human EphrinB2 ectodomain protein binding to soluble forms of the human EphB1, EphB2, and EphB4 ectodomain proteins, in the absence or presence of an A20 chemical (buffer conditions are always PBSTD:PBS with 0.05% Tween-20, 1% DMSO, and +/− indicated chemical). After loading EphrinB2-Fc protein to Octet AHC biosensors, washing, and obtaining stable baseline measurements in the appropriate PBSTD (either with or without indicated chemical), the sensors are placed in its buffer that also contains the indicated soluble EphB protein for the association step (0-80″), and then returned to its buffer for the dissociation step (81″-580″). In each figure (FIGS. 72A-72C), a sensorgram run using 10 μM of the 2×HCl salt form of A20-I is compared to the no compound control run to exemplify the maximum level of reduced response signal typically obtained with a potent A20 chemical.
(§3) Because the response levels during the dissociation step plateau for the EphrinB2-EphB2 and EphrinB2-EphB1 interactions by the first 80″, AUCs were also calculated for run data encompassing the first 160″ of each experiment to account for both the 80″ association data (red asterisks) and the first 80″ of dissociation data (marked by green line and asterisks).
(§4) The selectivity of another A20 analog (a 3×HCL salt form of compound BQPB4) in comparison to previously tested compound, A20-1, was tested as described in Example 27 above.
(§5) Further to the experiments listed above, a series of dose-response experiments were conducted to determine the IC50 of a selected A20 chemical (A20-1) on the kinetics of human EphrinB2 ligand ectodomain protein binding to its cognate human EphB1, EphB2, and EphB4 receptor ectodomain proteins. FIG. 74A-74C are representative sensorgrams showing the effect of 0, 0.1, 0.2, 0.4, 0.8, 1.6, and 3.2 μM, concentrations of the 2×HCl salt of A20-I along with a 10 μM max standard (also A20-1) on three different Ephrin-EphB interactions (e.g., EphB1 in FIG. 74A, EphB2 in FIG. 74B and EphB4 in FIG. 74C). […] Additional IC50 values were determined at specific timepoints, at 75″ into the association step and at 55″ into the dissociation step (135″).
(§6) All absolute and relative IC50 values are provided in the Table 6 below, where absolute are based off the full binding sensorgram traces, and relative are based off of the max control traces.
(§7) In another experiment, the % inhibition for various A20 analog chemicals against the three different EphrinB2-EphB protein interactions was determined. Specifically, the percent inhibition for immobilized human EphrinB2-Fc binding to 25 nM soluble human EphB1-His (FIG. 76A, enlarged in FIG. 76D), EphB2-His (FIG. 76B, enlarged in FIG. 76E), and EphB4-His (FIG. 76C, enlarged in FIG. 76F) with 3511-I, 8009-9255, QTM-Br, A19, A19-NO2, and IM (all at 3.2 μM) was determined.

EphrinB2-EphB4 = target: T2, EphrinB2-EphB4 (Homo sapiens, UniProt P54760); assay: Octet 80 sec association/500 sec dissociation, immobilized human EphrinB2-Fc binding to soluble human EphB4-His; conditions: for EphB4 Inhibition Percent, Inhibition of Association ONLY: at 3.2 μM and 80 seconds; for EphB4 Inhibition Percent, Inhibition of Association ONLY / EphB4 Inhibition Percent, Inhibition of Association-Dissociation: immobilized human EphrinB2, 25 nM soluble human EphB4; for EphB4 Inhibition Percent, Inhibition of Association-Dissociation: at 3.2 μM and 580 seconds; for inhibition at 3.2 µM: EphB4, 25 nM EphB4, 3.2 μM compound, A20-I as max control, 0* = less than 0, no inhibition
T2 construct: soluble human EphB1-His, EphB2-His, and EphB4-His ectodomains; commercially available human EphrinB1-Fc (EB1), EphrinB2-Fc (EB2), and EphrinB3-Fc (EB3) ectodomain proteins; purchased
T2 sequence (P54760 16-539 limits assumed): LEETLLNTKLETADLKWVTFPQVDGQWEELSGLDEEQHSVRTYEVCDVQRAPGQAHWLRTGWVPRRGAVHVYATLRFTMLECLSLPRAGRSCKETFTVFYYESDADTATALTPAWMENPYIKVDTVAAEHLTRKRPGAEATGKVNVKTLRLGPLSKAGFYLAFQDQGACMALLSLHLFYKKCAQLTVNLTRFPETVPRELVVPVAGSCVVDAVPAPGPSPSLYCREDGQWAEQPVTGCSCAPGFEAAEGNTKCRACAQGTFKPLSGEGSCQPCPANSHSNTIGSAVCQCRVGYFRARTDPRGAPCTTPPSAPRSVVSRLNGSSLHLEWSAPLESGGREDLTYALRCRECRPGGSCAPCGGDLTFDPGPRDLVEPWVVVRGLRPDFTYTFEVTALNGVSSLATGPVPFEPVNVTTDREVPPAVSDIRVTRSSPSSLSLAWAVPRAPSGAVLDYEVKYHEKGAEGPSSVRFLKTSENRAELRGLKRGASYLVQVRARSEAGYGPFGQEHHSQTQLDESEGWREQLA
Protocol: as §1, §2, §3, §4, §5, §6, §7

EphrinB2-EphB1 = target: T3, EphrinB2-EphB1 (Homo sapiens, UniProt P54762); assay: Octet 80 sec association/500 sec dissociation, immobilized human EphrinB2-Fc binding to soluble human EphB1-His; conditions: for EphB1 Inhibition Percent, Inhibition of Association ONLY: at 3.2 μM and 80 seconds; for EphB1 Inhibition Percent, Inhibition of Association ONLY / EphB1 Inhibition Percent, Inhibition of Association-Dissociation: immobilized human EphrinB2, 25 nM soluble human EphB1; for EphB1 Inhibition Percent, Inhibition of Association-Dissociation: at 3.2 μM and 580 seconds; for inhibition at 3.2 µM: EphB1, 25 nM EphB1, 3.2 μM compound, A20-I as max control, 0* = less than 0, no inhibition
T3 construct: soluble human EphB1-His, EphB2-His, and EphB4-His ectodomains; commercially available human EphrinB1-Fc (EB1), EphrinB2-Fc (EB2), and EphrinB3-Fc (EB3) ectodomain proteins; purchased
T3 sequence (P54762 18-540 limits assumed): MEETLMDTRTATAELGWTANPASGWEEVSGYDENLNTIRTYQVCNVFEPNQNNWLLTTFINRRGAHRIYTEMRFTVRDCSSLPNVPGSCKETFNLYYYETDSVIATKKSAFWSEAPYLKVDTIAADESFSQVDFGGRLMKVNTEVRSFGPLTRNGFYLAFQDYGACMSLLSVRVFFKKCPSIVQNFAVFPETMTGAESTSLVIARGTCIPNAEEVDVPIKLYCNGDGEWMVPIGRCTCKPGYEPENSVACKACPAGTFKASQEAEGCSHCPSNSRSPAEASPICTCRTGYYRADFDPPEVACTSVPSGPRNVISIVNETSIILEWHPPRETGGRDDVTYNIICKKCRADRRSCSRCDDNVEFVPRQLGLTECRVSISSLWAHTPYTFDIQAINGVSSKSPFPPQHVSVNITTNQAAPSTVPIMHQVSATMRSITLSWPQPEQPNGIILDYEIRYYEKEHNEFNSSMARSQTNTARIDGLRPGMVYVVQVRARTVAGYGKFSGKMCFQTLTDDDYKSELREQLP
Protocol: as §1, §2, §3, §4, §5, §6, §7

EphrinB2-EphB2 [2] = target: T1, EphrinB2-EphB2; assay: Octet tetramerization inhibition, immobilized human EphrinB2 binding to 50 nM soluble human EphB2
[3] = Absolute AUC/IC50, Table A, EphrinB2-EphB2
[4] = Absolute Association IC50 (300 sec), Table A, EphrinB2-EphB2
[5] = Absolute Dissociation IC50 (450 sec), Table A, EphrinB2-EphB2
[6] = Relative AUC/IC50, Table A, EphrinB2-EphB2, compound 7: association only
[7] = Relative Association IC50 (300 sec), Table A, EphrinB2-EphB2
[8] = Relative Dissociation IC50 (450 sec), Table A, EphrinB2-EphB2
[9] = tetramerization inhibitor IC50 (relative), association step, surmountable tetramer
[10] = read-out: % Inhibition: Association + Dissociation (160 sec)
[11] = read-out: % Inhibition: Association ONLY (80 sec)

| Compound | EphB2 Inhibition Percent, Inhibition of Association ONLY (EphrinB2-EphB2 [1]) | EphB2 Inhibition Percent, Inhibition of Association-Dissociation (EphrinB2-EphB2 [1]) | EphB4 Inhibition Percent, Inhibition of Association ONLY (EphrinB2-EphB4) | EphB4 Inhibition Percent, Inhibition of Association-Dissociation (EphrinB2-EphB4) [%] | EphB1 Inhibition Percent, Inhibition of Association ONLY (EphrinB2-EphB1) | EphB1 Inhibition Percent, Inhibition of Association-Dissociation (EphrinB2-EphB1) | pIC50 (EphrinB2-EphB2 [2]; [3]) | pIC50 (EphrinB2-EphB2 [2]; [4]) | pIC50 (EphrinB2-EphB2 [2]; [5]) | pIC50 (EphrinB2-EphB2 [2]; [6]) | pIC50 (EphrinB2-EphB2 [2]; [7]) | pIC50 (EphrinB2-EphB2 [2]; [8]) | pIC50 (EphrinB2-EphB2 [2]; [9]) | inhibition of EphrinB2-EphB interactions (EphrinB2-EphB2 [1]; 3.2 μM, EphB1, EphB2 and EphB4) | inhibition at 3.2 µM (EphrinB2-EphB2 [1]; [10]) [%] | inhibition at 3.2 µM (EphrinB2-EphB2 [1]; [11]) [%] | inhibition at 3.2 µM (EphrinB2-EphB4; [10]) [%] | inhibition at 3.2 µM (EphrinB2-EphB4; [11]) [%] | inhibition at 3.2 µM (EphrinB2-EphB1; [10]) [%] | inhibition at 3.2 µM (EphrinB2-EphB1; [11]) [%] |
| --- | --- | --- | --- | --- | --- | --- | --- | --- | --- | --- | --- | --- | --- | --- | --- | --- | --- | --- | --- | --- |
| OCc1ccc2c(CN3CCOCC3)ccc(O)c2n1 [Compound 12, 2-(hydroxymethyl)-5-(morpholinomethyl)quinolin-8-ol] | 48.1% | 48.1% | 11.0% | 11.0 | 17.4% | 17.4% | < 5.49 | < 5.49 | < 5.49 | < 5.49 | 5.56 | 5.83 | ~5.52 | – | – | – | – | – | – | – |
| O=S1(=O)CCN(Cc2cc(Br)c(O)c3ncccc23)CC1 [Compound 16, 4-((7-bromo-8-hydroxyquinolin-5-yl)methyl)thiomorpholine 1,1-dioxide] | – | – | – | – | – | – | – | – | – | – | – | – | ~6.10 | activity similar to A20-I max control | 74.5 | 59.5 | 37.2 | 18.1 | 48 | 33 |
| O=S1(=O)CCN(Cc2cc(Br)c(O)c3ncccc23)CC1 [Compound 17, 4-((7-bromo-8-hydroxyquinolin-1-ium-5-yl)methyl)thiomorpholin-4-ium 1,1-dioxide chloride] | 59.5% | 74.5% | 18.1% | 37.2 | 33.0% | 48.0% | 5.83 | 5.82 | 5.90 | 6.09 | 6.05 | 6.11 | – | – | – | – | – | – | – | – |
| O=S1(=O)CCN(Cc2cc(I)c(O)c3ncccc23)CC1 [Compound 19, 4-((8-hydroxy-7-iodoquinolin-1-ium-5-yl)methyl)thiomorpholin-4-ium 1,1-dioxide chloride] | 53.7% | 71.4% | 12.9% | 36.2 | 33.9% | 50.1% | < 5.80 | 5.80 | 5.85 | 6.16 | 6.08 | 6.09 | – | – | – | – | – | – | – | – |
| O=[N+]([O-])c1cc(CN2CCS(=O)(=O)CC2)c2cccnc2c1O [Compound 21, 4-((8-hydroxy-7-nitroquinolin-1-ium-5-yl)methyl)thiomorpholin-4-ium 1,1-dioxide chloride] | 36.7% and 57.0% | 51.7% and 69.2% | 0% and 4.3% | – | 24.0% and 23.8% | 36.0% and 28.9% | 5.94 and 5.71 | 5.76 | 5.77 | ~6.00 and 6.05 | 6.04 | 5.97 and 6.00 | – | – | – | – | – | – | – | – |
